How the values were obtained:
WiDr (NTR+ve) = experiment: Cell proliferation (sulphorhodamine B) IC50, NTR-transfected WiDr human colon cells; assay type: cell-based; details: for WiDr WT:NTR IC50 Ratio: 4 h, sensitivity ratio for NTR expression; for IC50: 4 h drug exposure, growth 5 further days
A549 (P450R+ve) = experiment: Cell proliferation (sulphorhodamine B) IC50, P450R-transfected A549 human lung cells, anoxia vs 20% O2; assay type: cell-based; details: for A549 (P450R+ve) 20% O2/anoxia IC50 Ratio: 4 h, sensitivity ratio for hypoxia; for IC50: 4 h drug exposure under 0% oxygen
[1] = system: SiHa human tumour xenografts; experiment: SiHa xenograft excision / clonogenic assay, with or without 15 Gy radiation; assay type: in vivo; details: for Log kill, cmpd after radiation: single i.p. dose 5 min after 15 Gy, relative to radiation only; for Log kill, cmpd only, Mean ± sem: single i.p. dose, no radiation, relative to vehicle controls, excision 18 h; for Activity against hypoxic cells: 20% of respective MTDs, after radiation
in vivo = details: CD-1 nude, mouse, ip

## 2 [(2-Bromoethyl)-5-[[(3-Hydroxypropyl)Amino]Carbonyl]-2,4-Dinitroanilino]Ethyl Methanesulfonate [IIa-13]
WiDr (NTR+ve)
  WiDr WT:NTR IC50 Ratio: 90
  IC50: 5 µM
A549 (P450R+ve)
  A549 (P450R+ve) 20% O2/anoxia IC50 Ratio: 18
  IC50: 32 µM

## 2-((2-Bromoethyl)-2-{[(2-Hydroxyethyl)Amino]Carbonyl}-4,6-Dinitroanilino)Ethyl Methanesulfonate [IIb-12]
WiDr (NTR+ve)
  WiDr WT:NTR IC50 Ratio: 48
  IC50: 0.4 µM
A549 (P450R+ve)
  A549 (P450R+ve) 20% O2/anoxia IC50 Ratio: 133
  IC50: 0.28 µM

## 2-((2-Bromoethyl)-2-{[(2-Hydroxypropyl)Amino]Carbonyl}-4,6-Dinitroanilino)Ethyl Methanesulfonate [IIb-13]
WiDr (NTR+ve)
  WiDr WT:NTR IC50 Ratio: 27
  IC50: 0.3 µM
A549 (P450R+ve)
  A549 (P450R+ve) 20% O2/anoxia IC50 Ratio: 138
  IC50: 0.15 µM

## 2-((2-Bromoethyl)-3-{[(2-Hydroxyethyl)Amino]carbonyl}-2,4-Dinitroanilino)Ethyl Methanesulfonate [IIc-12]
WiDr (NTR+ve)
  WiDr WT:NTR IC50 Ratio: 84
  IC50: 5 µM
A549 (P450R+ve)
  A549 (P450R+ve) 20% O2/anoxia IC50 Ratio: 173
  IC50: 2.6 µM

## 2-((2-Bromoethyl)-3-{[(3-Hydroxypropyl)Amino]Carbonyl}-2,4-Dinitroanilino)Ethyl Methanesulfonate [IIc-13]
WiDr (NTR+ve)
  WiDr WT:NTR IC50 Ratio: 95
  IC50: 4.3 µM
A549 (P450R+ve)
  A549 (P450R+ve) 20% O2/anoxia IC50 Ratio: 134
  IC50: 4.5 µM

## 2-((2-Bromoethyl)-3-{[(4-Hydroxybutyl)Amino]Carbonyl}-2,4-Dinitroanilino)Ethyl Methanesulfonate [IIc-14]
WiDr (NTR+ve)
  WiDr WT:NTR IC50 Ratio: 16
  IC50: 20 µM
A549 (P450R+ve)
  A549 (P450R+ve) 20% O2/anoxia IC50 Ratio: 57
  IC50: 7.1 µM

## 2-((2-Iodoethyl)-2-{[(2-Hydroxyethyl)Amino]Carbonyl}-4,6-Dinitroanilino)Ethyl Methanesulfonate [IIb-15]
WiDr (NTR+ve)
  WiDr WT:NTR IC50 Ratio: 31
  IC50: 0.3 µM
A549 (P450R+ve)
  A549 (P450R+ve) 20% O2/anoxia IC50 Ratio: 118
  IC50: 0.28 µM

## 2-[(2-Bromoethyl)-2,4-Dinitro-3-[[[2-(Phosphonooxy)Ethyl]Amino]-Carbonyl]Anilino]Ethyl Methanesulfonate [Ic-12P]
[1]; 20% of MTD
  Log kill, cmpd after radiation: 2.03 ± 0.25
[1]; 75% of MTD
  Log kill, cmpd after radiation: ≧2.96 ± 0.31
  Log kill, cmpd only, Mean ± sem: 1.04 ± 0.29

## 2-[(2-Bromoethyl)-2,4-Dinitro-3-[[[3-(Phosphonooxy)Propyl]Amino]-Carbonyl]Anilino]Ethyl Methanesulfonate [Ic-13P]
[1]; 20% of MTD
  Log kill, cmpd after radiation: 1.60 ± 0.20
[1]; 75% of MTD
  Log kill, cmpd after radiation: ≧3.23 ± 0.08
  Log kill, cmpd only, Mean ± sem: 2.36 ± 0.28

## 2-[(2-Bromoethyl)-2,4-Dinitro-6-[[[2-(Phosphonooxy)Ethyl]Amino]-Carbonyl]Anilino]Ethyl Methanesulfonate [Ib-12P]
[1]; 20% of MTD
  Log kill, cmpd after radiation: 1.65 ± 0.19
[1]; 75% of MTD
  Log kill, cmpd after radiation: ≧3.38 ± 0.28
  Log kill, cmpd only, Mean ± sem: 1.32 ± 0.30

## 2-[(2-Chloroethyl)-2,4-Dinitro-3-[[[3-(Phosphonooxy)Propyl]Amino]-Carbonyl]Anilino]Ethyl Methanesulfonate [Ic-6P]
[1]; 20% of MTD
  Log kill, cmpd after radiation: 1.64 ± 0.30
[1]; 75% of MTD
  Log kill, cmpd after radiation: ≧2.62 ± 0.17
  Log kill, cmpd only, Mean ± sem: 1.11 ± 0.20

## 2-[(2-Chloroethyl)-2,4-Dinitro-6-[[[2-(Phosphonooxy)Ethyl]amino]-Carbonyl]Anilino]Ethyl Methanesulfonate [Ib-2mP]
[1]; 20% of MTD
  Log kill, cmpd after radiation: 2.56 ± 0.37
[1]; 75% of MTD
  Log kill, cmpd after radiation: ≧3.47 ± 0.17
  Log kill, cmpd only, Mean ± sem: 2.47 ± 0.08

## 2-[(2-Iodoethyl)-2,4-Dinitro-3-[[[3-(Phosphonooxy)Propyl]Amino]-Carbonyl]Anilino]Ethyl Methanesulfonate [Ic-15P]
[1]; 20% of MTD
  Log kill, cmpd after radiation: 1.81 ± 0.23
[1]; 75% of MTD
  Log kill, cmpd after radiation: 2.80 ± 0.40
  Log kill, cmpd only, Mean ± sem: 2.27 ± 0.17

## 2-[(2-Iodoethyl)-2,4-Dinitro-6-({[2-(Phosphonooxy)Ethyl]Amino}Carbonyl)-Anilino]Ethyl Methanesulfonate [Ib-15P]
[1]; 20% of MTD
  Log kill, cmpd after radiation: 1.74 ± 0.23
[1]; 75% of MTD
  Log kill, cmpd after radiation: ≧3.27 ± 0.13
  Log kill, cmpd only, Mean ± sem: 2.24 ± 0.15

## 2-[Bis(2-Chloroethyl)Amino]-N-(6-Hydroxybexyl)-3,5-Dinitrobenzamide [IIb-6]
WiDr (NTR+ve)
  WiDr WT:NTR IC50 Ratio: 5
  IC50: 27 µM

## O=C(O)CCCc1ccc(N(CCCl)CCCl)cc1 [Chlorambucil, reference compound]
[1]
  Activity against hypoxic cells: lacked activity
[1]; 75% of MTD
  Log kill, cmpd only, Mean ± sem: 0.11 ± 0.04
In vivo
  MTD: 237 µmol/kg

## O=P1(N(CCCl)CCCl)NCCCO1 (centres unmarked) [Cyclophosphamide, reference compound]
[1]
  Activity against hypoxic cells: lacked activity
In vivo
  MTD: 750 µmol/kg

— patent publication US7629332B2, “Nitrophenyl mustard and nitrophenylaziridine alcohols and their corresponding phosphates and their use as targeted cytotoxic agents” (Auckland Uniservices Limited, priority 2003, dated 2009)
